From US6682892B2, “Method for treating herpes viruses” (priority 2000, dated 2004)
pIC50: −log10 of the molar value.

Experiments:
HSV-1 KOS = experiment: Plaque reduction assay, HSV-1 KOS; type: cell-based; conditions: Table 1, plaque reduction, Vero cells; read-out: IC50 (uM), HSV-1 KOS
Description: (§1) Antiviral activity of compounds against herpesviruses such as HSV-1, HSV-2, or HCMV can be measured using plaque reduction assays. 0.1 ml of media containing approximately 50 PFU of virus is added to each well of a 24-well cell culture dish containing a confluent monolayer of cells (Vero cells for HSV-1 and HSV-2, HFF cells for HCMV). Compounds are dissolved in 100% DMSO and diluted in 100% DMSO as 200× stocks of the desired final drug concentration. Typically 5-6 two-fold dilutions are prepared for each compound. Dilutions of compounds are then added to media containing 0.8% CMC resulting in a final 1× drug concentration. After the virus-infected cells have incubated for 1 h at 37° C., the virus innoculum is removed and 1 ml of media containing 0.8% CMC and the various concentrations of compound is added to each well of the dish. The dish is incubated at 37° C. for approximately 2-3 days (HSV-1 and HSV-2) or 6-9 days (HCMV) to allow sufficient growth of virus to form plaques in the cell monolayer. Plaques can be observed and counted microscopically or by staining the cells with 0.1% crystal violet in 20% ethanol. […] Antiviral activity of a compound is expressed as the concentration of compound predicted to reduce the number of plaques in a well by 50% (IC50). The IC50 values are calculated by plotting the per cent inhibition vs. concentration of compound using EXCEL software for linear regression.
(§2) A panel of viruses consisting of four strains of HSV-1 (KOS, F, DJL, Patton) and three strains of HSV-2 (MS, 35D, 186) are tested in a plaque reduction assay against four different 4-oxo-DHQ compounds (#1, 2, 4, 5 as shown in FIG. 1), and one 4-oxo-DHTP compound (#3 as shown in FIG. 1) and against Acyclovir. The six drugs inhibited replication of the seven virus strains with IC50 values ranging from 2-10 μM (Table 1). In order to select for 4-oxo-DHQ resistant mutants, HSV-1 strains KOS, F, and DJL along with HSV-2 strains 186 and MS are serially passaged in the presence of 20 uM compound 1. Following the seventh passage, 4-oxo-DHQ resistant virus from each strain are plaque purified three times and high-titer stocks are made.

HSV-1 DJL = experiment: Plaque reduction assay, HSV-1 DJL; type: cell-based; conditions: Table 1, plaque reduction, Vero cells
Description: as §1, §2

HSV-1 F-M1 (V823A) = experiment: Plaque reduction assay, 4-oxo-DHQ resistant HSV-1 F-M1; type: cell-based; conditions: Table 2, mutant V823A
Description: (§3) Antiviral activity of compounds against herpesviruses such as HSV-1, HSV-2, or HCMV can be measured using plaque reduction assays. 0.1 ml of media containing approximately 50 PFU of virus is added to each well of a 24-well cell culture dish containing a confluent monolayer of cells (Vero cells for HSV-1 and HSV-2, HFF cells for HCMV). Compounds are dissolved in 100% DMSO and diluted in 100% DMSO as 200× stocks of the desired final drug concentration. Typically 5-6 two-fold dilutions are prepared for each compound. Dilutions of compounds are then added to media containing 0.8% CMC resulting in a final 1× drug concentration. After the virus-infected cells have incubated for 1 h at 37° C., the virus innoculum is removed and 1 ml of media containing 0.8% CMC and the various concentrations of compound is added to each well of the dish. The dish is incubated at 37° C. for approximately 2-3 days (HSV-1 and HSV-2) or 6-9 days (HCMV) to allow sufficient growth of virus to form plaques in the cell monolayer. Plaques can be observed and counted microscopically or by staining the cells with 0.1% crystal violet in 20% ethanol. […] The IC50 values are calculated by plotting the per cent inhibition vs. concentration of compound using EXCEL software for linear regression. […]

HSV-1 DJL-M1 (V823A) = experiment: Plaque reduction assay, 4-oxo-DHQ resistant HSV-1 DJL-M1; type: cell-based; conditions: Table 2, mutant V823A
Description: as §3

HSV-2 MS-M1 (V826A) = experiment: Plaque reduction assay, 4-oxo-DHQ resistant HSV-2 MS-M1; type: cell-based; conditions: Table 2, mutant V826A; read-out: IC50 (uM), HSV-2 MS-M1
Description: as §1
Vero cells are plated out at a density of 3.5×10^5 cells per well in a six well tissue culture plate. Cells are infected with HSV-1 KOS at a multiplicity of infection (moi) of 0.1 pfu/cell and 1 h post infection the cells are overlayed with 3 ml media containing 20 uM of a 4-oxo-DHQ. Cultures are incubated for 20 h at 37° C., freeze/thawed to release cell-associated virus, and 0.1 ml of culture is used to infect a new monolayer of Vero cells (one passage). Serial passage is repeated seven times in the presence of 20 uM drug. Virus isolates are then plaque purified three times prior to preparation of stocks. 4-oxo-DHQ resistant HSV-1 and HSV-2 may also be selected by the marker transfer method described below using wild-type HSV DNA and the corresponding mutant HSV polymerase gene.
as §2

HCMV (wild) polymerase = HCMV (wild) polymerase (Human cytomegalovirus, UniProt P08546); experiment: In vitro polymerase assay, wild HCMV polymerase; type: biochemical; conditions: Table 3
HCMV (wild) polymerase, sequence (P08546 whole entry): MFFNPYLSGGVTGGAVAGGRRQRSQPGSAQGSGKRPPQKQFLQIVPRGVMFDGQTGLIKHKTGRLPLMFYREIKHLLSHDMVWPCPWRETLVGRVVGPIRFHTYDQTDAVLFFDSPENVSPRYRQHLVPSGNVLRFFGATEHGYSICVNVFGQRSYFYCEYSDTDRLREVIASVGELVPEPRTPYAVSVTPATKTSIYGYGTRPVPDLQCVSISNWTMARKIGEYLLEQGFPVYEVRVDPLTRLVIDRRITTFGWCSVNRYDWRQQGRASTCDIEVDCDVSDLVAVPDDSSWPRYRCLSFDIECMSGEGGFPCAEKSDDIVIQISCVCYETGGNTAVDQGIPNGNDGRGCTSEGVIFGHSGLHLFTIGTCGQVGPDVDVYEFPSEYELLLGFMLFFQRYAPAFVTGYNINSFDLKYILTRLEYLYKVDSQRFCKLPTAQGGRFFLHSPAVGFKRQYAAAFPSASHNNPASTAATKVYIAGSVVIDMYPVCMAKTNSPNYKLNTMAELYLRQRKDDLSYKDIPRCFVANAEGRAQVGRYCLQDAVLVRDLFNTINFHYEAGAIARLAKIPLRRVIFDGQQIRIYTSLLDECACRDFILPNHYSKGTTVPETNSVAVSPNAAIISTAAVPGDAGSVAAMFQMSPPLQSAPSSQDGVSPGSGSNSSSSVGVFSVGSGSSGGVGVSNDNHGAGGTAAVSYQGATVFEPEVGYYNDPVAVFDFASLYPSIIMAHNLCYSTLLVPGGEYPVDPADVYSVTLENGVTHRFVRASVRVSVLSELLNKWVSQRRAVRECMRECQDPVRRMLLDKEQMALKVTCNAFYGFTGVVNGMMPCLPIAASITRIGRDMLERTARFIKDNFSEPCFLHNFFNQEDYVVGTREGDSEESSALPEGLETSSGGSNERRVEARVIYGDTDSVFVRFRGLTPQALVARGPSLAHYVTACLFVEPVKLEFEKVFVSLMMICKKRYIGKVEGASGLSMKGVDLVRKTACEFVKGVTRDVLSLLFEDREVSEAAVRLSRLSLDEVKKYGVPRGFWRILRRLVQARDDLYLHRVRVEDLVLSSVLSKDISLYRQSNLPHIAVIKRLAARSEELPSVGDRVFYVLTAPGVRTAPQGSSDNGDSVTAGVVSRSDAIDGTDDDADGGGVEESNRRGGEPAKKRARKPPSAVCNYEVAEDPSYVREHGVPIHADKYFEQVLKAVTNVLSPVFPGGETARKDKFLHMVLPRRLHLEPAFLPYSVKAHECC
Description: In order to select for a 4-oxo-DHQ HCMV resistant mutant, virus (strain AD169) is serially passaged in the presence of 20 uM a 4-oxo-DHQ. […] In order to determine if both valines need to be changed in order to confer resistance to the 4-oxo-DHQ's, in vitro polymerase assays are done using mutant HCMV polymerases containing either V823A or V823A plus V824L (Table 3).

HCMV AD169 = experiment: Plaque reduction assay, HCMV AD169; type: cell-based; conditions: Table 4, plaque reduction, wild type; read-out: HCMV AD169 IC50
Description: as §1

[1] = test system: HCMV AD169-M1 (V823A, V824L); experiment: Plaque reduction assay, 4-oxo-DHQ resistant HCMV AD169-M1; type: cell-based; conditions: Table 4, plaque reduction, resistant mutant; read-out: HCMV AD169 - M1 IC50
Description: as §1
A plasmid containing the wild-type HCMV polymerase gene is modified to contain the V823A or V823A and V824L mutations using a site-directed mutagenesis Kit (Stratagene Corp.) and following the manufactures's protocol. HFF cells are plated into T25 tissue culture flasks to achieve 80% confluency at the time of the transfection. Wild type HCMV AD 169 DNA and plasmid DNA containing the mutant HCMV polymerase gene are mixed at a ratio of 1:2 (2 ug of viral DNA to 4 ug of plasmid DNA). DNA's are transfected using superfect transfection reagent according to methods recommended by the manufacturer (Quiagen Inc.). Cells are harvested five days posttransfection, freeze-thawed to release virus and half of the sample is used to infect HFF cell monolayers. Cells are overlayed with media containing 20 uM 4-oxo-DHQ compound 2 (see FIG. 1). Serial passage is repeated seven times in the presence of 20 uM compound 2 and virus isolates are then plaque purified three times prior to preparation of viral stock.
In order to isolate an HCMV resistant mutant marker rescue experiments are done. Plasmids containing the mutant polymerase genes are transfected into HFF cells along with wild type HCMV AD169 DNA. The resulting virus is then serially passaged in the presence of 20 uM compound 1 (see FIG. 1). A 4-oxo-DHQ resistant virus is isolated from marker rescue studies done with the HCMV polymerase gene containing mutations that result in the V823A, V824L amino acid changes, but not with the gene containing V823A change alone.

[2] = test system: 4-oxo-DHQ resistant HSV-1, HSV-2 and HCMV mutants; experiment: Plaque reduction assay, 4-oxo-DHQ resistant mutants compared with parent virus; type: cell-based; conditions: HSV-1 and HSV-2 mutants
Description: as §3

With `Cn1cc(C(=O)NCc2ccc(Cl)cc2)c(=O)c2cc(/C=C\CO)cc(F)c21` [Compound 1] the IC50 (HSV-1 KOS) was 2 µM, the IC50 (HSV-1 DJL) was 2.5 µM and the IC50 (HSV-1 F-M1 (V823A)) was > 20 µM. For the same compound, the IC50 (HSV-1 DJL-M1 (V823A)) was > 20 µM, the IC50 (HSV-2 MS-M1 (V826A)) was > 20 µM and the IC50 (HCMV (wild) polymerase) was 4.6 µM. The pIC50 (HCMV AD169) was 6.15, the pIC50 [1] was 5.33 and the “increase in IC50, HSV mutants selected with compound 1” value [2] was > 10 fold.
